Where two headings read alike, the source gives them in different places.
How the values were obtained:
Assay type in all cases: cell-based
[1] = tested on: DENV2 replicon; test: DENV-2 Huh-7 Rep EC50 (replicon luminescence); conditions: read-out: DENV-2 Huh-7 Rep EC50
Procedure, shortened: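 Huh-7 cells carrying a DENV2 replicon, 5,000 cells/well, were incubated with dosed compounds for 48 h at 37° C. EnduRen live-cell substrate was added 1.5 h before luminescence reading. EC50 came from dose-response against DMSO-only wells.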

[2] = tested on: RSV A2; test: RSV NHBE EC50 (RSV A2 antiviral assay in normal human bronchial epithelial cells); conditions: read-out: RSV NHBE EC50
[3] = tested on: RSV strain A2; test: RSV HEp-2 EC50 (infectious cytopathic cell protection assay); conditions: read-out: RSV HEp-2 EC50
Procedure, shortened: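 HEp-2 cells mixed with titered RSV A2 at 50,000 cells/ml were added to plates holding 3-fold serial compound dilutions in DMSO, then incubated 4 days at 37° C. Cytoprotection was read as cell viability by CellTiter-Glo luminescence and converted to percent inhibition against 0% and 100% inhibition controls.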

[4] = tested on: HRV16; test: HRV16 HELA EC50 (cytopathic effect in H1-HeLa cells)
Procedure, shortened: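 H1-HeLa cells seeded one day before, given 3-fold serial compound dilutions in triplicate just prior to infection with pre-titrated virus. Incubated 96 h at 33 °C/5% CO2; protection from cytopathic effect read as viability by CellTiter-Glo luminescence, normalised to infected untreated (0%) and uninfected (100%) controls.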

[5] = Dengue virus, DENV2, Huh-7, 48 h, Huh-7 replicon cells, 48 hours
[6] = human respiratory syncytial virus, NHBE, 96 h, NHBE cells, RSV A2, 4 days
[7] = 96 h, H1-HeLa cells, 33° C., read-out: HRV16 HELA EC50
[8] = H1-HeLa cells, 96 h, 33° C.; read-out: HRV16 HELA EC50
[9] = human respiratory syncytial virus, HEp-2, 96 h, HEp-2 cells, RSV A2, 4 days
[10] = Dengue virus, DENV2, Huh-7, 48 h
[11] = human respiratory syncytial virus, NHBE, 96 h
[12] = human respiratory syncytial virus, HEp-2, 96 h
[13] = 96 h, read-out: HRV16 HELA EC50

Row | Compound | EC50 [1, 5] | EC50 [2, 6] | EC50 ([3]; HEp-2 cells, RSV A2, 4 days) | EC50 [4, 7] | EC50 ([2]; NHBE cells, RSV A2, 4 days) | EC50 [3, 9] | further results
1 | C[C@H](NP(=O)(OC[C@@]1(C#N)O[C@@H](c2ccc3c(N)ncnn23)[C@H](O)[C@@H]1O)Oc1ccccc1)C(=O)OC1CCOCC1 (single isomer, unassigned) [Example 56] | > 50 µM | 2.24 µM | 4.17 µM | 7.96 µM |  |  | 
2 | C[C@H](NP(=O)(OC[C@@]1(C#N)O[C@@H](c2ccc3c(N)ncnn23)[C@H](O)[C@@H]1O)Oc1ccccc1)C(=O)OC1CCOCC1 (single isomer, unassigned) [Example 57] |  |  | 1.49 µM |  | > 4.18 µM |  | EC50 ([1]; Huh-7 replicon cells, 48 hours): > 50 µM; EC50 [4, 8]: 5.48 µM
3 | CC(C)OC(=O)[C@H](C)N[P@@](=O)(OC[C@@]1(C#N)O[C@@H](c2ccc3c(N)ncnn23)[C@H](O)[C@@H]1O)Oc1ccccc1 (single isomer, unassigned) [Example 78] | > 50 µM | 1.77 µM |  | 2.26 µM |  | 2.04 µM | 
4 | CCC(CC)COC(=O)[C@@H](C)NP(=O)(OC[C@@]1(C#N)O[C@@H](c2ccc3c(N)ncnn23)[C@H](O)[C@@H]1O)Oc1ccccc1 (single isomer, unassigned) [Example 84] |  |  | 8.07 µM |  | 1.13 µM |  | EC50 ([1]; Huh-7 replicon cells, 48 hours): > 50 µM; EC50 [4, 8]: 19.9 µM
5 | CC[C@H](NP(=O)(OC[C@@]1(C#N)O[C@@H](c2ccc3c(N)ncnn23)[C@H](O)[C@@H]1O)Oc1ccccc1)C(=O)OC1CCCC1 (single isomer, unassigned) [Example 111] | > 50 µM |  | 3.97 µM | 25.3 µM | > 1.48 µM |  | 
6 | N#C[C@]1(COP(=O)(NCC(=O)OC2CCCC2)Oc2ccccc2)O[C@@H](c2ccc3c(N)ncnn23)[C@H](O)[C@@H]1O (single isomer, unassigned) [Example 113] | 42.7 µM | 0.352 µM |  | 2.64 µM |  | 0.611 µM | 
7 | N#C[C@]1(COP(=O)(NCC(=O)OC2CCCC2)Oc2ccccc2)O[C@@H](c2ccc3c(N)ncnn23)[C@H](O)[C@@H]1O (single isomer, unassigned) [Example 114] |  |  | 0.974 µM |  | 0.255 µM |  | EC50 ([1]; Huh-7 replicon cells, 48 hours): > 50 µM; EC50 [4, 8]: 4.7 µM
8 | CCC(CC)COC(=O)[C@H](CC(C)C)NP(=O)(OC[C@@]1(C#N)O[C@@H](c2ccc3c(N)ncnn23)[C@H](O)[C@@H]1O)Oc1ccccc1 (single isomer, unassigned) [Example 129] | 26.7 µM |  | 42.9 µM | 41.6 µM | > 5 µM |  | 
9 | C[C@H](NP(=O)(OC[C@@]1(C#N)O[C@@H](c2ccc3c(N)ncnn23)[C@H](O)[C@@H]1O)Oc1ccccc1)C(=O)OC1CCCCCC1 (single isomer, unassigned) [Example 136] | 51.1 µM |  | 2.77 µM | 0.577 µM | 0.095 µM |  | 
10 | C[C@H](NP(=O)(OC[C@@]1(C#N)O[C@@H](c2ccc3c(N)ncnn23)[C@H](O)[C@@H]1O)Oc1ccccc1)C(=O)OC1CCC(F)(F)CC1 (single isomer, unassigned) [Example 176] |  |  | 0.161 µM | 0.547 µM | 1.64 µM |  | EC50 ([1]; Huh-7 replicon cells, 48 hours): 28.6 µM
11 | C[C@H](NP(=O)(OC[C@@]1(C#N)O[C@@H](c2ccc3c(N)ncnn23)[C@H](O)[C@@H]1O)Oc1ccccc1)C(=O)O[C@H]1CC[C@@H](C(F)(F)F)CC1 (single isomer, unassigned) [Example 180] | 6.62 µM |  | 0.142 µM | 0.851 µM | 0.833 µM |  | 
12 | C[C@@H](NP(=O)(OC[C@@]1(C#N)O[C@@H](c2ccc3c(N)ncnn23)[C@H](O)[C@@H]1O)Oc1ccccc1)C(=O)O[C@H]1CC[C@H](C(F)(F)F)CC1 (single isomer, unassigned) [Example 195] | > 100 µM | 0.678 µM |  |  |  | 2.59 µM | EC50 [4, 8]: 2.55 µM
13 | CCC(CC)COC(=O)[C@H](C)N[P@@](=O)(OC[C@@]1(C#N)O[C@@H](c2ccc3c(N)ncnn23)[C@H](O)[C@@H]1O)Oc1ccccc1 (single isomer, unassigned) [Example 207] | 4.84 µM | 0.091 µM |  | 0.183 µM |  | 0.124 µM | 
14 | CCOC(=O)C1CCCN1P(=O)(OC[C@@]1(C#N)O[C@@H](c2ccc3c(N)ncnn23)[C@H](O)[C@@H]1O)Oc1ccccc1 (stereo in doubt) [Example 117, (2R)-ethyl 1-((((2R,3S,4R,5S)-5-(4-aminopyrrolo[2,1-f][1,2,4]triazin-7-yl)-2-cyano-3,4-dihydroxytetrahydrofuran-2-yl)methoxy)(phenoxy)phosphoryl)pyrrolidine-2-carboxylate] |  |  |  |  |  |  | EC50 [1, 10]: > 100 µM; EC50 [2, 11]: > 5 µM; EC50 [3, 12]: > 100 µM; EC50 [4, 13]: > 100 µM
15 | CCCCOC(=O)C1CCCN1P(=O)(OC[C@@]1(C#N)O[C@@H](c2ccc3c(N)ncnn23)[C@H](O)[C@@H]1O)Oc1ccccc1 (stereo in doubt) [Example 124, (2R)-butyl 1-((((2R,3S,4R,5S)-5-(4-aminopyrrolo[2,1-f][1,2,4]triazin-7-yl)-2-cyano-3,4-dihydroxytetrahydrofuran-2-yl)methoxy)(phenoxy)phosphoryl)pyrrolidine-2-carboxylate] |  |  |  |  |  |  | EC50 [1, 10]: > 100 µM; EC50 [2, 11]: > 5 µM; EC50 [3, 12]: > 100 µM; EC50 [4, 13]: > 86.4 µM
16 | CCOC(=O)[C@H](Cc1ccccc1)NP(=O)(OC[C@@]1(C#N)O[C@@H](c2ccc3c(N)ncnn23)[C@H](O)[C@@H]1O)Oc1ccccc1 (stereo partly drawn) [Example 3, (2S)-ethyl 2-(((((2R,3S,4R,5S)-5-(4-aminopyrrolo[2,1-f][1,2,4]triazin-7-yl)-2-cyano-3,4-dihydroxytetrahydrofuran-2-yl)methoxy)(phenoxy)phosphoryl)amino)-3-phenylpropanoate] | > 100 µM | 1.69 µM |  | 8.96 µM |  | 4.09 µM | 
17 | C[C@H](NP(=O)(N[C@@H](C)C(=O)OC1CCCCC1)OC[C@@]1(C#N)O[C@@H](c2ccc3c(N)ncnn23)[C@H](O)[C@@H]1O)C(=O)OC1CCCCC1 [Example 14] |  |  |  |  |  |  | EC50 [1, 10]: > 100 µM; EC50 ([2]; human respiratory syncytial virus, 96 h, NHBE cells, RSV A2, 4 days): 1.27 µM; EC50 ([3]; human respiratory syncytial virus, 96 h, HEp-2 cells, RSV A2, 4 days): 3.65 µM; EC50 [4, 8]: 12.4 µM
18 | C[C@H](NP(=O)(OC[C@@]1(C#N)O[C@@H](c2ccc3c(N)ncnn23)[C@H](O)[C@@H]1O)Oc1ccccc1)C(=O)O[C@H]1CCN(C)C1 (stereo partly drawn) [Example 15, (S)-1-methylpyrrolidin-3-yl ((((2R,3S,4R,5S)-5-(4-aminopyrrolo[2,1-f][1,2,4]triazin-7-yl)-2-cyano-3,4-dihydroxytetrahydrofuran-2-yl)methoxy)(phenoxy)phosphoryl)-L-alaninate] | > 50 µM | 3.25 µM |  | 11.4 µM |  | 4.33 µM | 
19 | C[C@H](NP(=O)(OC[C@@]1(C#N)O[C@@H](c2ccc3c(N)ncnn23)[C@H](O)[C@@H]1O)Oc1ccccc1)C(=O)O[C@H]1CC[C@H](C(F)(F)F)CC1 (stereo partly drawn) [Example 16, trans-4-(trifluoromethyl)cyclohexyl ((((2R,3S,4R,5S)-5-(4-aminopyrrolo[2,1-f][1,2,4]triazin-7-yl)-2-cyano-3,4-dihydroxytetrahydrofuran-2-yl)methoxy)(phenoxy)phosphoryl)-L-alaninate] | 70.8 µM | 0.104 µM |  | 1.31 µM |  | 1.29 µM | 
20 | C[C@H](NP(=O)(OC[C@@]1(C#N)O[C@@H](c2ccc3c(N)ncnn23)[C@H](O)[C@@H]1O)Oc1ccccc1)C(=O)OCC1CCOCC1 (stereo partly drawn) [Example 20, (tetrahydro-2H-pyran-4-yl)methyl ((((2R,3S,4R,5S)-5-(4-aminopyrrolo[2,1-f][1,2,4]triazin-7-yl)-2-cyano-3,4-dihydroxytetrahydrofuran-2-yl)methoxy)(phenoxy)phosphoryl)-L-alaninate] | > 50 µM | 2.23 µM |  | 4.88 µM |  | 0.877 µM | 
21 | C[C@H](NP(=O)(OC[C@@]1(C#N)O[C@@H](c2ccc3c(N)ncnn23)[C@H](O)[C@@H]1O)Oc1ccccc1)C(=O)O[C@H]1CC[C@H](C(C)(C)C)CC1 (stereo partly drawn) [Example 21, trans-4-(tert-butyl)cyclohexyl ((((2R,3S,4R,5S)-5-(4-aminopyrrolo[2,1-f][1,2,4]triazin-7-yl)-2-cyano-3,4-dihydroxytetrahydrofuran-2-yl)methoxy)(phenoxy)phosphoryl)-L-alaninate] | 11 µM | 0.027 µM |  | 0.23 µM |  | 0.079 µM | 

Source: patent US20230295201A1 (Gilead Sciences, Inc., priority 2020, published 2023)
